Measurements reported in ChEMBL document CHEMBL1156206, “Pyrazolone-fused combretastatins and their precursors: synthesis, cytotoxicity, antitubulin activity and molecular modeling studies” (Bioorg Med Chem, 2010).
The source made the active and inactive calls. No cut-off for these calls is given here.

Key:
[1] = Inhibition of tubulin polymerization at 20 uM relative to control
HEp-2 [2] = assay: Cytotoxicity against human Hep2 cells after 72 hrs by MTT assay; assay type: functional, cell-based; settings: HEp-2, 72 h
HeLa [3] = assay: Cytotoxicity against human HeLa cells after 72 hrs by MTT assay; assay type: functional, cell-based
RT-112 = assay: Cytotoxicity against human RT112 cells after 72 hrs by MTT assay; assay type: functional, cell-based; settings: RT-112, 72 h
SW-620 = assay: Cytotoxicity against human SW620 cells after 72 hrs by MTT assay; assay type: functional, cell-based; settings: SW-620, 72 h
MIA PaCa-2 = assay: Cytotoxicity against human MIAPaCa2 cells after 72 hrs by MTT assay; assay type: functional, cell-based; settings: MIA PaCa-2, 72 h
[4] = Inhibition of tubulin polymerization
HEp-2 [5] = assay: Cytotoxicity against human cisplatin-resistant Hep2 cells after 72 hrs by MTT assay; assay type: functional, cell-based; settings: HEp-2, 72 h
T-24 = assay: Cytotoxicity against human T24 cells after 72 hrs by MTT assay; assay type: functional, cell-based; settings: T-24, 72 h
HeLa [6] = assay: Cell cycle arrest in human HeLa cells assessed as accumulation of cells in G2/M phase at 2.2 uM after 24 hrs using propidium iodide by flow cytometry; assay type: functional
HeLa [7] = assay: Induction of microtubule network disruption in human HeLa cells at 0.02 uM after 24 hrs by immunofluorescence assay; assay type: functional, cell-based
HeLa [8] = assay: Cell cycle arrest in human HeLa cells assessed as accumulation of cells in S phase at 0.02 uM after 24 hrs using propidium iodide by flow cytometry; assay type: functional
HeLa [9] = assay: Induction of apoptosis in human HeLa cells assessed as cells containing hypodiploid DNA at 2.2 uM after 24 hrs by flow cytometry; assay type: functional
HeLa [10] = assay: Cell cycle arrest in human HeLa cells assessed as accumulation of cells in G2/M phase at 0.02 uM after 24 hrs using propidium iodide by flow cytometry; assay type: functional
HeLa [11] = assay: Induction of apoptosis in human HeLa cells assessed as cells containing hypodiploid DNA at 0.2 uM after 24 hrs by flow cytometry; assay type: functional
HeLa [12] = assay: Cell cycle arrest in human HeLa cells assessed as accumulation of cells in S phase at 0.2 uM after 24 hrs using propidium iodide by flow cytometry; assay type: functional
HeLa [13] = assay: Cell cycle arrest in human HeLa cells assessed as accumulation of cells in G0/1 phase at 0.2 uM after 24 hrs using propidium iodide by flow cytometry; assay type: functional
HeLa [14] = assay: Cell cycle arrest in human HeLa cells assessed as accumulation of cells in G0/1 phase at 0.02 uM after 24 hrs using propidium iodide by flow cytometry; assay type: functional
HeLa [15] = assay: Cell cycle arrest in human HeLa cells assessed as accumulation of cells in G0/1 phase at 2.2 uM after 24 hrs using propidium iodide by flow cytometry; assay type: functional
HeLa [16] = assay: Cell cycle arrest in human HeLa cells assessed as accumulation of cells in G2/M phase at 0.2 uM after 24 hrs using propidium iodide by flow cytometry; assay type: functional
HeLa [17] = assay: Induction of microtubule network disruption in human HeLa cells at 0.2 uM after 24 hrs by immunofluorescence assay; assay type: functional, cell-based
HeLa [18] = assay: Induction of apoptosis in human HeLa cells assessed as cells containing hypodiploid DNA at 0.02 uM after 24 hrs by flow cytometry; assay type: functional
HeLa [19] = assay: Induction of microtubule network disruption in human HeLa cells at 2.2 uM after 24 hrs by immunofluorescence assay; assay type: functional, cell-based
HeLa [20] = assay: Cell cycle arrest in human HeLa cells assessed as accumulation of cells in S phase at 2.2 uM after 24 hrs using propidium iodide by flow cytometry; assay type: functional
[21] = Homo sapiens, HeLa, 72 h, read-out: IC50

COc1ccc(-c2[nH][nH]c(=O)c2-c2cc(OC)c(OC)c(OC)c2)cc1
inhibition [1]: 100% | IC50 (HEp-2 [2]): 529 nM | IC50 (HeLa [3]; [21]): 152 nM | IC50 (RT-112): 1890 nM | IC50 (SW-620): 455 nM | IC50 (MIA PaCa-2): 575 nM | IC50 [4]: 2600 nM | IC50 (HEp-2 [5]): 615 nM | IC50 (T-24): 1160 nM

COC(=O)NNC(=O)/C(=C/c1cc(OC)c(OC)cc1OC)c1ccc(OC)c(OC)c1
inhibition [1]: 0% | IC50 (HeLa [3]; hela): Not Active

COc1ccc(-c2c(-c3cc(OC)c(OC)cc3OC)[nH][nH]c2=O)cc1OC
inhibition [1]: 0% | IC50 (HeLa [3]; [21]): > 50000 nM

COc1ccc(-c2[nH][nH]c(=O)c2-c2cc(OC)c(OC)c(OC)c2)cc1O
inhibition [1]: 99% | IC50 (HEp-2 [2]): 1140 nM | IC50 (HeLa [3]; [21]): 176 nM | IC50 (RT-112): 2080 nM | IC50 (SW-620): 543 nM | IC50 (MIA PaCa-2): 462 nM | IC50 [4]: 1700 nM | IC50 (HEp-2 [5]): 709 nM | IC50 (T-24): 619 nM

COC(=O)n1[nH]c(=O)c(-c2cc(OC)c(OC)c(OC)c2)c1-c1ccc(OC)cc1
inhibition [1]: 0% | IC50 (HeLa [3]; [21]): 959 nM

COC(=O)NNC(=O)/C(=C/c1ccc(OC)cc1)c1cc(OC)c(OC)c(OC)c1
inhibition [1]: 26% | IC50 (HeLa [3]; [21]): 1310 nM

COc1ccc(-c2c(-c3cc(OC)c(OC)c(OC)c3)[nH][nH]c2=O)cc1OC
inhibition [1]: 4% | IC50 (HeLa [3]; [21]): > 50000 nM

COc1ccc(-c2[nH][nH]c(=O)c2-c2cc(OC)c(OC)c(OC)c2)cc1OC
inhibition [1]: 31% | IC50 (HeLa [3]; [21]): 5270 nM

COC(=O)NNC(=O)/C(=C/c1cccc(F)c1)c1cc(OC)c(OC)c(OC)c1
inhibition [1]: 10% | IC50 (HeLa [3]; [21]): > 50000 nM

COC(=O)n1[nH]c(=O)c(-c2cc(OC)c(OC)c(OC)c2)c1-c1ccc(OC)c(OC(C)=O)c1
inhibition [1]: 0% | IC50 (HeLa [3]; [21]): 337 nM

COC(=O)n1[nH]c(=O)c(-c2cc(OC)c(OC)c(OC)c2)c1-c1ccc(OC)c(F)c1
inhibition [1]: 9% | IC50 (HeLa [3]; [21]): 1720 nM

COc1cc(-c2c(-c3cccc(F)c3)[nH][nH]c2=O)cc(OC)c1OC
inhibition [1]: 0% | IC50 (HeLa [3]; [21]): > 50000 nM

COc1ccc(/C=C\c2cc(OC)c(OC)c(OC)c2)cc1O [COMBRETASTATIN A4]
inhibition [1]: 89% | Activity (HeLa [6]): 91.1% | IC50 (HEp-2 [2]): 5.5 nM | IC50 (HeLa [3]; [21]): 2 nM | IC50 (RT-112): 21.6 nM | Activity (HeLa [7]): Active | IC50 (SW-620): 23 nM | IC50 (MIA PaCa-2): 7.2 nM | IC50 [4]: 1700 nM | IC50 (HEp-2 [5]): 5.2 nM | IC50 (T-24): 8.7 nM

COc1ccc(-c2[nH][nH]c(=O)c2-c2cc(OC)c(OC)c(OC)c2)cc1F
inhibition [1]: 100% | IC50 (HEp-2 [2]): 1180 nM | IC50 (HeLa [3]; [21]): 158 nM | IC50 (RT-112): 3320 nM | IC50 (SW-620): 487 nM | IC50 (MIA PaCa-2): 556 nM | IC50 (HEp-2 [5]): 684 nM | IC50 (T-24): 1150 nM

COC(=O)NNC(=O)/C(=C/c1cccc2ccccc12)c1cc(OC)c(OC)c(OC)c1
inhibition [1]: 55% | IC50 (HeLa [3]; [21]): 1300 nM

COC(=O)NNC(=O)/C(=C/c1ccc(OC)c(F)c1)c1cc(OC)c(OC)c(OC)c1
inhibition [1]: 66% | IC50 (HeLa [3]; [21]): 667 nM

COC(=O)n1[nH]c(=O)c(-c2ccc(OC)c(OC)c2)c1-c1cc(OC)c(OC)cc1OC
inhibition [1]: 2% | IC50 (HeLa [3]; hela): Not Active

COC(=O)n1[nH]c(=O)c(-c2cc(OC)c(OC)c(OC)c2)c1-c1cccc(F)c1
inhibition [1]: 1% | IC50 (HeLa [3]; hela): Not Active

COC(=O)NNC(=O)/C(=C/c1cc(OC)c(OC)c(OC)c1)c1ccc(OC)c(OC)c1
inhibition [1]: 0% | IC50 (HeLa [3]; [21]): > 50000 nM

COC(=O)n1[nH]c(=O)c(-c2cc(OC)c(OC)c(OC)c2)c1-c1ccc(OC)c(OC)c1
inhibition [1]: 3% | IC50 (HeLa [3]; [21]): 36300 nM

COC(=O)n1[nH]c(=O)c(-c2cc(OC)c(OC)c(OC)c2)c1-c1cccc2ccccc12
inhibition [1]: 7% | IC50 (HeLa [3]; [21]): > 50000 nM

COC(=O)NNC(=O)/C(=C/c1ccc(OC)c(OC)c1)c1cc(OC)c(OC)c(OC)c1
inhibition [1]: 0% | IC50 (HeLa [3]; [21]): > 50000 nM

COC(=O)NNC(=O)/C(=C/c1ccc(OC)c(OC(C)=O)c1)c1cc(OC)c(OC)c(OC)c1
inhibition [1]: 25% | IC50 (HeLa [3]; [21]): 498 nM

COC(=O)n1[nH]c(=O)c(-c2ccc(OC)c(OC)c2)c1-c1cc(OC)c(OC)c(OC)c1
inhibition [1]: 0% | IC50 (HeLa [3]; hela): Not Active

COC(=O)n1[nH]c(=O)c(-c2cc(OC)c(OC)c(OC)c2)c1-c1ccc2ccccc2c1
inhibition [1]: 3% | IC50 (HeLa [3]; [21]): 523 nM

COc1cc(-c2c(-c3cccc4ccccc34)[nH][nH]c2=O)cc(OC)c1OC
inhibition [1]: 0% | IC50 (HeLa [3]; [21]): > 50000 nM

COc1cc(-c2c(-c3ccc4ccccc4c3)[nH][nH]c2=O)cc(OC)c1OC
inhibition [1]: 98% | IC50 (HeLa [3]; [21]): 114 nM | IC50 [4]: 1900 nM

COC(=O)NNC(=O)/C(=C/c1ccc2ccccc2c1)c1cc(OC)c(OC)c(OC)c1
inhibition [1]: 97% | Activity (HeLa [8]): 28.3% | Activity (HeLa [6]): 90.5% | IC50 (HEp-2 [2]): 54 nM | Activity (HeLa [9]): 21.4% | IC50 (HeLa [3]; [21]): 48 nM | Activity (HeLa [10]): 11.5% | Activity (HeLa [11]): 21.1% | Activity (HeLa [12]): 10.8% | IC50 (RT-112): 196 nM | Activity (HeLa [7]): inactive | Activity (HeLa [13]): 2.7% | Activity (HeLa [14]): 60.2% | Activity (HeLa [15]): 1.2% | Activity (HeLa [16]): 86.6% | IC50 (SW-620): 74.3 nM | Activity (HeLa [17]): Active | Activity (HeLa [18]): 6.9% | IC50 (MIA PaCa-2): 127 nM | IC50 [4]: 2700 nM | Activity (HeLa [19]): Active | IC50 (HEp-2 [5]): 51 nM | Activity (HeLa [20]): 7.9% | IC50 (T-24): 185 nM
